Assay [1] addresses T1, His tagged full-length PTPN1 protein (Homo sapiens, UniProt P18031).
T1 construct: made in house
T1 sequence (P18031 with tags, fused parts or gaps): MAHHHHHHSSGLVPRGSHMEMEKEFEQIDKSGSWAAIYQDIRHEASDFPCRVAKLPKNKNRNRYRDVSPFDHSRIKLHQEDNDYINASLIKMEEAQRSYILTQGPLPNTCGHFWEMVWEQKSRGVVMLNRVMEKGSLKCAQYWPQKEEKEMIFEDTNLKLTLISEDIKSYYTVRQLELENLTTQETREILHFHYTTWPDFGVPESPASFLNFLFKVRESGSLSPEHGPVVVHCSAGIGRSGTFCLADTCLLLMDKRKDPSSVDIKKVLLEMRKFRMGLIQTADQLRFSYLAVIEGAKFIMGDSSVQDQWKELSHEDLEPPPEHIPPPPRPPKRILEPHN
Briefly: Mobility shift assay (MSA) to determine potency of PTPN1 inhibitors. Type of assay: biochemical. To be noted: 0.5 nM enzyme, 2 μM substrate. Put shortly: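 His-tagged full-length human PTPN1 (0.5 nM) preincubated with compound 10 min at room temperature in pH 7.5 HEPES buffer with EGTA, EDTA, Tween 20 and DTT. Dephosphorylation of 2 μM fluorescent phospho-insulin-receptor peptide over 10 min measured by mobility shift. IC50 from % inhibition across a 12-point, 1:3 dilution series.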

The target of assay [2] is T2, His tagged PTPN2 (TC45) protein (Homo sapiens, UniProt P17706).
T2 construct: made in house
T2 sequence (P17706 with tags, fused parts or gaps isoform P17706-2): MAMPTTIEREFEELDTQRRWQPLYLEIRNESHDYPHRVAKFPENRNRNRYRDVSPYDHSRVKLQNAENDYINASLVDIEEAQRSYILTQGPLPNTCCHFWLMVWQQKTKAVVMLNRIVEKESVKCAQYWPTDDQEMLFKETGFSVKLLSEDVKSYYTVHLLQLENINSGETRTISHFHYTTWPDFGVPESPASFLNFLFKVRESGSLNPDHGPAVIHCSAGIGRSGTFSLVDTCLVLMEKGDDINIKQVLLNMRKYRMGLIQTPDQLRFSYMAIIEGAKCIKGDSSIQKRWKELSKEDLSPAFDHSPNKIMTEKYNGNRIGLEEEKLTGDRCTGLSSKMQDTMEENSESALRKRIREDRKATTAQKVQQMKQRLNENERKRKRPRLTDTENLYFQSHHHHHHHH
Briefly: Mobility shift assay (MSA) to determine potency of PTPN2 inhibitors. Type of assay: biochemical. To be noted: 0.5 nM enzyme, 2 μM substrate. Put shortly:
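His-tagged human PTPN2 (TC45), 0.5 nM, preincubated 10 min at room temperature with compound (12-point, 1:3 dilutions) in HEPES pH 7.5 buffer with EGTA, EDTA, Tween 20 and DTT. Then 2 μM OG488-labelled phospho-insulin-receptor peptide was added for 10 min and quenched. % conversion was read by mobility shift, and IC50 came from % inhibition.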

pIC50: −log10 of the molar value.

This is an account of results in patent publication US20250122160A1, “PROTEIN TYROSINE PHOSPHATASE INHIBITORS AND METHODS OF USE THEREOF” (Calico Life Sciences LLC, priority 0001, published 2025).

As a reminder, the pIC50 is the negative decadic logarithm of the IC50, by convention in mol/L. With `CC(C)(CN[C@@H]1CCc2cc(O)c(N3CC(=O)NS3(=O)=O)c(F)c2C1)CN1CCCC1` [Compound 358, 5-[(7R)-7-{[2,2-dimethyl-3-(pyrrolidin-1-yl)propyl]amino}-1-fluoro-3-hydroxy-5,6,7,8-tetrahydronaphthalen-2-yl]-1λ^6,2,5-thiadiazolidine-1,1,3-trione], the pIC50 in assay [1] and in assay [2] was 7.00 to 8.00 in each case.

Turning to `O=C1CN(c2c(O)cc3c(c2F)CN(C(=O)NCC2CC2)CC3)S(=O)(=O)N1` [Compound 258], the negative logarithm of the IC50 (pIC50) in assay [1] and in assay [2] was 8.00 to 9.00 each time.

As to `COCCCCN[C@@H]1CCc2cc(O)c(N3CC(=O)NS3(=O)=O)c(F)c2C1` [Compound 360, 5-{(7R)-1-fluoro-3-hydroxy-7-[(4-methoxybutyl)amino]-5,6,7,8-tetrahydronaphthalen-2-yl}-1λ^6,2,5-thiadiazolidine-1,1,3-trione], the results for the pIC50 in assay [1] and in assay [2] were 7.00 to 8.00 and 8.00 to 9.00, respectively.

Regarding `CC(C)(O)CCN1CCc2cc(O)c(N3CC(=O)NS3(=O)=O)c(F)c2C1` [Compound 170], the negative logarithm of the IC50 (pIC50) in assay [1] is below 7.00; in assay [2], 7.00 to 8.00.

For the compound `Cc1nn(C)c(C)c1CN1CCc2cc(O)c(N3CC(=O)NS3(=O)=O)c(F)c2C1` [Compound 213], the pIC50 in assay [1] and in assay [2] was below 7.00 in each case.

Consider `O=C1CN(c2c(O)cc3c(c2F)CN(CC[C@H]2C[C@@H](OC(F)(F)F)C2)CC3)S(=O)(=O)N1` [Compound 231], for which the negative-log IC50 (pIC50) in assay [1] was 8.00 to 9.00; in assay [2], 7.00 to 8.00.

For `O=C1CN(c2c(O)cc3c(c2F)CN(CCN2CCCC2)CC3)S(=O)(=O)N1` [Compound 193], the pIC50 was 7.00 to 8.00 in assay [1] and below 7.00 in assay [2].

For `COCC(C)(C)CNC(=O)N1CCc2cc(O)c(N3CC(=O)NS3(=O)=O)c(F)c2C1` [Compound 279], the pIC50 in assay [1] and in assay [2] was 7.00 to 8.00 in each case.

As for `CCn1nc(C)c(CCN2CCc3cc(O)c(N4CC(=O)NS4(=O)=O)c(F)c3C2)c1C` [Compound 276], the negative logarithm of the IC50 (pIC50) in assay [1] was 8.00 to 9.00; in assay [2] it was above 9.00.

For `COCCCN1CCc2cc(O)c(N3CC(=O)NS3(=O)=O)c(F)c2C1` [Compound 217], the pIC50 in assay [1] and in assay [2] was below 7.00 throughout.

Regarding `CC1(C)CCc2cc(O)c(N3CC(=O)NS3(=O)=O)c(F)c2O1` [Compound 113], the pIC50 in assay [1] and in assay [2] was below 7.00 throughout.

As to `O=C1CN(c2c(O)cc3c(c2F)CN(CCc2cncnc2)CC3)S(=O)(=O)N1` [Compound 210], the pIC50 in assay [1] is 7.00 to 8.00; in assay [2] it was below 7.00.

As to `CC(C)(C)OC(=O)N1CCC(CN[C@@H]2COc3cc(O)c(N4CC(=O)NS4(=O)=O)c(F)c3C2)CC1` [Compound 384, tert-butyl 4-({[(3S)-5-fluoro-7-hydroxy-6-(1,1,4-trioxo-1λ^6,2,5-thiadiazolidin-2-yl)-3,4-dihydro-2H-1-benzopyran-3-yl]amino}methyl) piperidine-1-carboxylate], the pIC50 in assay [1] and in assay [2] was 7.00 to 8.00 in each case.

In the case of `O=C1CN(c2c(O)cc3c(c2F)C[C@H](NCc2ccc(CO)o2)CC3)S(=O)(=O)N1` [Compound 359, 5-[(7R)-1-fluoro-3-hydroxy-7-({[5-(hydroxymethyl)furan-2-yl]methyl}amino)-5,6,7,8-tetrahydronaphthalen-2-yl]-1λ^6,2,5-thiadiazolidine-1,1,3-trione], the pIC50 in assay [1] and in assay [2] was 7.00 to 8.00 each time.

Regarding `O=C1CN(c2c(O)cc3c(c2F)C[C@H](NCCC2(CO)CCC2)CC3)S(=O)(=O)N1` [Compound 338, 5-[(7R)-1-fluoro-3-hydroxy-7-({2-[1-(hydroxymethyl)cyclobutyl]ethyl}amino)-5,6,7,8-tetrahydronaphthalen-2-yl]-1λ^6,2,5-thiadiazolidine-1,1,3-trione], the pIC50 was 8.00 to 9.00 in assay [1] and above 9.00 in assay [2].

As for `O=C1CN(c2c(O)cc3c(c2F)CN(C(=O)NCC2CCOCC2)CC3)S(=O)(=O)N1` [Compound 261], the pIC50 in assay [1] and in assay [2] was 7.00 to 8.00 each time.

As for `CN(C)CCNC(=O)N1CCc2cc(O)c(N3CC(=O)NS3(=O)=O)c(F)c2C1` [Compound 280], the pIC50 in assay [1] and in assay [2] was below 7.00 throughout.

For the compound `CC(C)NCCN1CCc2cc(O)c(N3CC(=O)NS3(=O)=O)c(F)c2C1` [Compound 164], the pIC50 in assay [1] was below 7.00; in assay [2] it was 7.00 to 8.00.

As for `O=C1CN(c2c(O)cc3c(c2F)CN(CCC2CC(F)(F)C2)CC3)S(=O)(=O)N1` [Compound 192], the pIC50 in assay [1] and in assay [2] was 7.00 to 8.00 throughout.

For the compound `CCOCCCN[C@@H]1CCc2cc(O)c(N3CC(=O)NS3(=O)=O)c(F)c2C1` [Compound 354, 5-{(7R)-7-[(3-ethoxypropyl)amino]-1-fluoro-3-hydroxy-5,6,7,8-tetrahydronaphthalen-2-yl}-1λ^6,2,5-thiadiazolidine-1,1,3-trione], the pIC50 in assay [1] is 7.00 to 8.00; in assay [2] it was 8.00 to 9.00.

As for `Cc1c(CCN2CCc3cc(O)c(N4CC(=O)NS4(=O)=O)c(F)c3C2)cnn1C` [Compound 257], the pIC50 in assay [1] and in assay [2] was 8.00 to 9.00 each time.

As to `O=C1CN(c2c(O)cc3c(c2F)CN(C(=O)NCC2CC(F)(F)C2)CC3)S(=O)(=O)N1` [Compound 262], the pIC50 is 8.00 to 9.00 in assay [1] and 7.00 to 8.00 in assay [2].
